Legend:
Gβ1γ2 Tyr145Ala = target: T1, Gβ1γ2 Tyr145Ala (Rattus norvegicus, UniProt P54311, Y145A); assay: Phage ELISA, b-βγ mutant Tyr145Ala; type: binding; conditions: Gβ1γ2 Tyr145Ala; phage displaying SIGK peptide
T1 construct: made in house; host or cells: Sf9 insect cells (baculovirus)
Text: (§1) Wild-type Gβ1 and Gβ1 mutants were made in the baculovirus vector PDW464 which encodes a biotinylation site at a lysine upstream of the amino terminus of Gβ1 (Goubaeva, et al. (2003) supra). Mutants were generated by overlap extension PCR using standard protocols. The wild-type and mutant Gβ1 constructs consisted of a 20 amino acid biotin acceptor peptide (BAP) sequence fused in-frame with the amino-terminus of rat Gβ1 subunit. When coexpressed with biotin holoenzyme synthetase (BirA) in Sf9 cells, the Gβ1 subunit becomes covalently biotinylated in vivo at the Specific lysine acceptor residue in the BAP. Using this approach, 1-2 mg protein of purified protein can be obtained per liter of Sf9 insect cells. As 45 ng of protein is used in the phage ELISA assay, a single purification is sufficient for 10,000 to 30,000 binding assays.
(§2) Phage ELISA assays used to assess peptide binding to wild-type and mutant b-βγ were performed according to standard methods (Smrcka and Scott (2002) Methods Enzymol. 344:557-76). Briefly, 1 μg streptavidin was immobilized in the well of a […] overnight at 4° C. The wells were blocked with 100 μL of 2% bovine serum albumin (BSA) in Tris-buffered saline (TBS) for 1 hour at 4° C. followed by three washes of 1×TBS/0.5% TWEEN®. Forty μL of 25 nM bGβ1γ2 in TBS/0.5% TWEEN® was added to each well and incubated at 4° C. for 1.5 hour. The wells were washed, followed by the addition of 1×10^6 to 1×10^10 phage particles and incubated at 4° C. for 3 hours. The wells were then washed six times with TBS/0.5% TWEEN® followed by addition of 40 μL of 1:5000 dilution of anti-M13 antibody (Pharmacia, Uppsala, Sweden) and incubated at room temperature for 1 hour. The wells were washed, followed by the addition of 40 μL of (2,2′-Azino-bis(3-ethylbenzthiazoline)-6-sulfonic acid (ABTS) and the colorimetric reaction was monitored at 405 nm. Non-specific binding was subtracted for each reading.
(§3) Both assays were then carried out with Gβ1γ2 heterodimers containing mutations in the Gβ1 subunit.
(§4) The nine peptides were selected to represent the different consensus groups of peptides previously identified (See Scott et al. (2001) supra; Table 9) and to compare binding characteristics within and between consensus groups. […] As disclosed herein, the binding signal obtained in the ELISA assay was correlated to a loss in affinity by comparing the results to behavior of the peptide in a solution based assay. […] For the purposes of present disclosure, any substitution that decreased the binding to less than 20% of the wild-type binding was considered to be a critical binding contact for that peptide.

Gβ1γ2 Met101Ala = target: T2, Gβ1γ2 Met101Ala (Rattus norvegicus, UniProt P54311, M101A); assay: Phage ELISA, b-βγ mutant Met101Ala; type: binding; conditions: Gβ1γ2 Met101Ala; phage displaying SIGK peptide
T2 construct: made in house; host or cells: Sf9 insect cells (baculovirus)
Text: as §1, §2, §3, §4

Gβ1γ2 Asp246Ser = target: T3, Gβ1γ2 Asp246Ser (Rattus norvegicus, UniProt P54311, D246S); assay: Phage ELISA, b-βγ mutant Asp246Ser; type: binding; conditions: Gβ1γ2 Asp246Ser; phage displaying SIGK peptide
T3 construct: made in house; host or cells: Sf9 insect cells (baculovirus)
Text: as §1, §2, §3, §4

Gβ1γ2 Lys57Ala = target: T4, Gβ1γ2 Lys57Ala (Rattus norvegicus, UniProt P54311, K57A); assay: Phage ELISA, b-βγ mutant Lys57Ala; type: binding; conditions: Gβ1γ2 Lys57Ala; phage displaying SIGK peptide
T4 construct: made in house; host or cells: Sf9 insect cells (baculovirus)
Text: as §1, §2, §3, §4

Gβ1γ2 Leu117Ala = target: T5, Gβ1γ2 Leu117Ala (Rattus norvegicus, UniProt P54311, L117A); assay: Phage ELISA, b-βγ mutant Leu117Ala; type: binding; conditions: Gβ1γ2 Leu117Ala; phage displaying SIGK peptide
T5 construct: made in house; host or cells: Sf9 insect cells (baculovirus)
Text: as §1, §2, §3, §4

Gβ1γ2 His62Ala = target: T6, Gβ1γ2 His62Ala (Rattus norvegicus, UniProt P54311, H62A); assay: Phage ELISA, b-βγ mutant His62Ala; type: binding; conditions: phage displaying SIGK peptide
T6 construct: made in house; host or cells: Sf9 insect cells (baculovirus)
Text: as §1
(§5) Phage ELISA assays used to assess peptide binding to wild-type and mutant b-βγ were performed according to standard methods (Smrcka and Scott (2002) Methods Enzymol. 344:557-76). Briefly, 1 μg streptavidin was immobilized in the well of a 96-six well plate overnight at 4° C. […] The wells were washed, followed by the addition of 40 μL of (2,2′-Azino-bis(3-ethylbenzthiazoline)-6-sulfonic acid (ABTS) and the colorimetric reaction was monitored at 405 nm. Non-specific binding was subtracted for each reading. […]

Gβ1γ2 Trp99Ala = target: T7, Gβ1γ2 Trp99Ala (Rattus norvegicus, UniProt P54311, W99A); assay: Phage ELISA, b-βγ mutant Trp99Ala; type: binding
T7 construct: made in house; host or cells: Sf9 insect cells (baculovirus)
Text: as §1, §2, §3, §4

[1] = target: T8, wild-type b-Gβ1γ2 (Fαi1 binding) (Rattus norvegicus, UniProt P54311); assay: Flow cytometry competition for FITC-Gαi1 binding to immobilized wild-type b-βγ; conditions: Log [SIGK] M −7
T8 construct: made in house; host or cells: Sf9 insect cells (baculovirus) for b-βγ
Text: as §1, with “BAP.” for “BAP. Using this approach, 1-2 mg protein of purified protein can be obtained per liter of Sf9 insect cells. As 45 ng of protein is used in the phage ELISA assay, a single purification is sufficient for 10,000 to 30,000 binding assays.”
(§6) Blocking of Gαi•Gβ1γ2 binding was assessed by simultaneously adding 200 pM FITC-Gαi with or without SICK to 50 pM immobilized b-βγ and measuring the amount of FITC-Gαi bound to the beads by flow cytometry according to standard methods (Ghosh, et al. (2003) supra; Sarvazyan, et al. (1998) J. Biol. Chem. 273:7934-40).
(§7) Fluorescein-labeled Gαi1 (Fαi1) was prepared in accordance with standard methods (Sarvazyan, et al. (1998) supra). Assays were used to determine peptide effects on Gα-Gβγ interactions included competition and dissociation assays (Ghosh, et al. (2003) supra). […] The bead-associated fluorescence was then recorded in a BD Biosciences FACSCALIBUR™ flow cytometer. Data was corrected for background fluorescence and fit with a sigmoid dose response curve using Graph Pad Prism 4. […]

[2] = target: T9, b-βγ Trp332Ala (Fαi1 binding) (Rattus norvegicus, UniProt P54311, W332A); assay: Flow cytometry competition for FITC-Gαi1 binding, b-βγ Trp332Ala; conditions: Log [SIGK] M −7
T9 construct: made in house; host or cells: Sf9 insect cells (baculovirus)
Text: as §1, with “BAP.” for “BAP. Using this approach, 1-2 mg protein of purified protein can be obtained per liter of Sf9 insect cells. As 45 ng of protein is used in the phage ELISA assay, a single purification is sufficient for 10,000 to 30,000 binding assays.”
as §6, §7

[3] = target: T10, b-βγ Arg314Ala (Fαi1 binding) (Rattus norvegicus, UniProt P54311, R314A); assay: Flow cytometry competition for FITC-Gαi1 binding, b-βγ Arg314Ala; conditions: Log [SIGK] M −7
T10 construct: made in house; host or cells: Sf9 insect cells (baculovirus)
Text: as §1, with “BAP.” for “BAP. Using this approach, 1-2 mg protein of purified protein can be obtained per liter of Sf9 insect cells. As 45 ng of protein is used in the phage ELISA assay, a single purification is sufficient for 10,000 to 30,000 binding assays.”
as §6, §7

Gβ1γ2 Trp332Ala = target: T11, Gβ1γ2 Trp332Ala (Rattus norvegicus, UniProt P54311, W332A); assay: Phage ELISA, b-βγ mutant Trp332Ala; type: binding; conditions: Gβ1γ2 Trp332Ala; phage displaying SIGK peptide
T11 construct: made in house; host or cells: Sf9 insect cells (baculovirus)
Text: as §1, §2, §3, §4

Gβ1γ2 Arg314Ala = target: T12, Gβ1γ2 Arg314Ala (Rattus norvegicus, UniProt P54311, R314A); assay: Phage ELISA, b-βγ mutant Arg314Ala; type: binding; conditions: Gβ1γ2 Arg314Ala; phage displaying SIGK peptide
T12 construct: made in house; host or cells: Sf9 insect cells (baculovirus)
Text: as §1, §2, §3, §4

Gβ1γ2 His311Ala = target: T13, Gβ1γ2 His311Ala (Rattus norvegicus, UniProt P54311, H311A); assay: Phage ELISA, b-βγ mutant His311Ala; type: binding; conditions: Gβ1γ2 His311Ala; phage displaying SIGK peptide
T13 construct: made in house; host or cells: Sf9 insect cells (baculovirus)
Text: as §1, §2, §3, §4

Gβ1γ2 Met188Ala = target: T14, Gβ1γ2 Met188Ala (Rattus norvegicus, UniProt P54311, M188A); assay: Phage ELISA, b-βγ mutant Met188Ala; type: binding; conditions: Gβ1γ2 Met188Ala; phage displaying SIGK peptide
T14 construct: made in house; host or cells: Sf9 insect cells (baculovirus)
Text: as §1, §2, §3, §4

Gβ1γ2 Phe292Ala = target: T15, Gβ1γ2 Phe292Ala (Rattus norvegicus, UniProt P54311, F292A); assay: Phage ELISA, b-βγ mutant Phe292Ala; type: binding; conditions: phage displaying SIGK peptide
T15 construct: made in house; host or cells: Sf9 insect cells (baculovirus)
Text: as §1, §5

Question: With `CC[C@H](C)[C@H](NC(=O)[C@H](CCCCN)NC(=O)[C@H](Cc1ccccc1)NC(=O)[C@H](C)NC(=O)[C@H](CCCCN)NC(=O)CNC(=O)[C@@H](NC(=O)[C@@H](N)CO)[C@@H](C)CC)C(=O)N[C@@H](CC(C)C)C(=O)NCC(=O)N[C@@H](Cc1ccc(O)cc1)C(=O)N1CCC[C@H]1C(=O)N[C@@H](CC(=O)O)C(=O)N[C@@H](Cc1ccc(O)cc1)C(=O)N[C@@H](CC(=O)O)C(=O)O` [SIGK] as the compound, how does the “% of Wild-Type Signal (mean ± SD)” value (Gβ1γ2 Tyr145Ala) read?
Answer: 0.8 ± 0.9%

Question: And the “% of Wild-Type Signal (mean ± SD)” value (Gβ1γ2 Met101Ala)?
Answer: 32.2 ± 15.5%

Question: What about the “% of Wild-Type Signal (mean ± SD)” value (Gβ1γ2 Asp246Ser) of the same compound?
Answer: 66.5 ± 7.5%

Question: And the “% of Wild-Type Signal (mean ± SD)” value (Gβ1γ2 Lys57Ala)?
Answer: 18.6 ± 4.6%

Question: What about the “% of Wild-Type Signal (mean ± SD)” value (Gβ1γ2 Leu117Ala) of the same compound?
Answer: 2.1 ± 2.4%

Question: What about the “% of Wild-Type Signal (mean ± SD)” value (Gβ1γ2 His62Ala) of the same compound?
Answer: 111.2 ± 11.3%

Question: And the “% of Wild-Type Signal (mean ± SD)” value (Gβ1γ2 Trp99Ala; Gβ1γ2 Trp99Ala, phage displaying SIGK peptide)?
Answer: 66.0 ± 7.7%

Question: What about the decrease in affinity (Gβ1γ2 Trp99Ala; Trp99 mutation of Gβ1) of the same compound?
Answer: 4 fold

Question: And the “% Maximal Fα Binding (± SD)” value [1]?
Answer: 100.0 ± 0.0%

Question: What about the “% Maximal Fα Binding (± SD)” value [2] of the same compound?
Answer: 100.0 ± 0.0%

Question: What about the “% Maximal Fα Binding (± SD)” value [3] of the same compound?
Answer: 100.0 ± 0.0%

Question: And the “% of Wild-Type Signal (mean ± SD)” value (Gβ1γ2 Trp332Ala)?
Answer: 7.1 ± 3.7%

Question: What about the “% of Wild-Type Signal (mean ± SD)” value (Gβ1γ2 Arg314Ala) of the same compound?
Answer: 50.2 ± 5.0%

Question: What about the “% of Wild-Type Signal (mean ± SD)” value (Gβ1γ2 His311Ala) of the same compound?
Answer: 94.3 ± 18.9%

Question: And the “% of Wild-Type Signal (mean ± SD)” value (Gβ1γ2 Met188Ala)?
Answer: 2.5 ± 3.7%

Question: What about the “% of Wild-Type Signal (mean ± SD)” value (Gβ1γ2 Phe292Ala) of the same compound?
Answer: 109.1 ± 21.4%

Reference: patent US8748480B2, “Methods for treating opioid tolerance” (priority 2005, dated 2014)
